In publication PMC5297980 (Clinical Pharmacology in Drug Development, 2016):

Tests used:
[1] = cited from earlier work
[2] = Phase 1 methotrexate-isavuconazole interaction study, plasma PK; format: in vivo, human
P‐gp = conditions: in vitro studies; cited from earlier work
[3] = OATP1B1 substrate; cited from earlier work
[4] = Phase 1 digoxin-isavuconazole interaction study, plasma PK; format: in vivo, human
[5] = Phase 1 metformin-isavuconazole interaction study, plasma PK
[6] = test system: multidrug and toxin extrusion 1 (MATE1); conditions: HEK293 cells, [^14C]metformin substrate; ref data on file; cited from earlier work
[7] = test system: organic anion transporter 1 (OAT1); conditions: HEK293 cells, [^3H]‐p‐aminohippuric acid substrate; ref data on file; cited from earlier work
OAT3 = conditions: HEK293 cells, [^3H]estrone sulfate substrate; ref data on file; cited from earlier work
[8] = test system: organic anion‐transporting polypeptide 1B1 (OATP1B1); conditions: HEK293 cells, [^3H]estradiol 17β‐D‐glucuronide substrate; ref data on file; cited from earlier work
[9] = test system: organic cation transporter 1 (OCT1); conditions: HEK293 cells, [^14C]tetraethylammonium bromide; ref data on file; cited from earlier work
OCT2 = conditions: HEK293 cells, [^14C]metformin substrate; ref data on file; cited from earlier work
[10] = Phase 1 atorvastatin-isavuconazole interaction study, plasma PK; conditions: human, oral, 200 mg
[11] = methotrexate + isavuconazole (day 8), mean (SD)
[12] = methotrexate + isavuconazole vs methotrexate alone
[13] = methotrexate alone (day 1), mean (SD)

CC[C@@H]([C@H](C)O)n1ncn(-c2ccc(N3CCN(c4ccc(OC[C@@H]5CO[C@@](Cn6cncn6)(c6ccc(F)cc6F)C5)cc4)CC3)cc2)c1=O [Posaconazole]
effect on plasma concentrations of digoxin ([1]; ref NOXAFIL package insert): increase plasma concentrations of digoxin

CN(Cc1cnc2nc(N)nc(N)c2n1)c1ccc(C(=O)N[C@@H](CCC(=O)O)C(=O)O)cc1 [Methotrexate, methotrexate]
Cmax ([2]; human, plasma, oral, 7.5 mg): 156 ng/mL
Tmax ([2]; human, plasma, oral, 7.5 mg): 1 h
AUC(0-inf) ([2]; human, plasma, po, 7.5 mg): 620 ng·h/mL
Mean AUClast lower when coadministered with isavuconazole ([2]; vs methotrexate alone): 3%
Mean AUC∞ lower when coadministered with isavuconazole ([2]; vs methotrexate alone): 3%
Mean Cmax lower when coadministered with isavuconazole ([2]; vs methotrexate alone): 11%

CCC(C)n1ncn(-c2ccc(N3CCN(c4ccc(OCC5COC(Cn6cncn6)(c6ccc(Cl)cc6Cl)O5)cc4)CC3)cc2)c1=O (stereo not drawn) [itraconazole]
increase in plasma digoxin concentrations during coadministration [1]: approximately 80%

CN(Cc1nc2c(N)nc(N)nc2[nH]c1=O)c1ccc(C(=O)N[C@@H](CCC(=O)O)C(=O)O)cc1 [7‐Hydroxymethotrexate, 7‐hydroxymethotrexate]
AUC∞ ([2]; methotrexate 7.5 mg single oral dose alone (day 1), mean (SD)): 635.8 (309.3) h·ng/mL
AUClast [2, 11]: 683.2 (272.5) h·ng/mL
Cmax [2, 11]: 36.7 (14.0) ng/mL
t1/2 [2, 11]: 13.0 (2.3) h
Tmax ([2]; methotrexate + isavuconazole (day 8), median (range)): 6.0 (3.5‐10.0) h
AUClast geometric least‐squares mean ratio (90% confidence interval) [2, 12]: 124 (114, 135) %
AUC∞ geometric least‐squares mean ratio (90% confidence interval) [2, 12]: 129 (119, 141) %
Cmax geometric least‐squares mean ratio (90% confidence interval) [2, 12]: 115 (104, 127) %
AUClast [2, 13]: 554.6 (242.6) h·ng/mL
Cmax [2, 13]: 32.1 (13.4) ng/mL
t1/2 [2, 13]: 11.9 (2.9) h
Tmax ([2]; methotrexate alone (day 1), median (range)): 6.0 (5.0‐10.0) h
Mean AUClast higher during concomitant administration with isavuconazole ([2]; vs methotrexate alone): 24%
Mean AUC∞ higher during concomitant administration with isavuconazole ([2]; vs methotrexate alone): 29%
Mean Cmax higher during concomitant administration with isavuconazole ([2]; vs methotrexate alone): 15%

OC(Cn1cncn1)(Cn1cncn1)c1ccc(F)cc1F [fluconazole]
inhibition of P‐gp‐mediated active transport (P‐gp): not an inhibitor

CCOc1cc(CC(=O)N[C@@H](CC(C)C)c2ccccc2N2CCCCC2)ccc1C(=O)O [repaglinide]
PK in the presence and absence of isavuconazole [3]: unchanged

C[C@H]1O[C@@H](O[C@H]2[C@@H](O)C[C@H](O[C@H]3[C@@H](O)C[C@H](O[C@H]4CC[C@@]5(C)[C@H](CC[C@@H]6[C@@H]5C[C@@H](O)[C@]5(C)[C@@H](C7=CC(=O)OC7)CC[C@]65O)C4)O[C@@H]3C)O[C@@H]2C)C[C@H](O)[C@@H]1O [Digoxin, digoxin]
Mean AUClast higher in the presence vs absence of isavuconazole ([4]; digoxin study): 24%
Mean AUC∞ higher in the presence vs absence of isavuconazole ([4]; digoxin study): 25%
Mean Cmax higher in the presence vs absence of isavuconazole ([4]; digoxin study): 33%
AUC(0-t) ([4]; human, plasma, oral, 0.5 mg): 32.9 ng·h/mL
Cmax ([4]; human, plasma, oral, 0.5 mg): 1.6 ng/mL
half-life ([4]; human, plasma, oral, 0.5 mg): 40.9 h
AUC(0-inf) ([4]; human, plasma, po, 0.5 mg): 34.4 ng·h/mL

CN(C)C(=N)N=C(N)N [Metformin, metformin]
AUC(0-t) ([5]; human, plasma, oral, 850 mg): 9120 ng·h/mL
Tmax ([5]; metformin + isavuconazole (day 8), median (range)): 2.0 (1.0‐4.0) h
Cmax ([5]; metformin alone (day 1), mean (SD)): 1467 (449) ng/mL
Tmax ([5]; metformin alone (day 1), median (range)): 2.5 (1.0‐6.0) h
AUC∞ ([5]; metformin hydrochloride 850 mg single oral dose alone (day 1), mean (SD)): 9303 (2543) h·ng/mL
Mean AUClast higher in the presence vs absence of isavuconazole ([5]; metformin study): 50%
Mean AUC∞ higher in the presence vs absence of isavuconazole ([5]; metformin study): 52%
Mean Cmax higher in the presence vs absence of isavuconazole ([5]; metformin study): 23%

C[C@@H](c1nc(-c2ccc(C#N)cc2)cs1)[C@](O)(Cn1cncn1)c1cc(F)ccc1F [Isavuconazole, isavuconazole]
AUC ([4]; human, plasma, oral, 200 mg): 102000 ng·h/mL
Cmax ([4]; human, plasma, oral, 200 mg): 6100 ng/mL
Tmax ([4]; human, plasma, oral, 200 mg): 3 h
AUC ([2]; human, plasma, oral, 200 mg): 99400 ng·h/mL
Cmax ([2]; human, plasma, oral, 200 mg): 6200 ng/mL
Tmax ([2]; human, plasma, oral, 200 mg): 3 h
IC50 [6]: 6.31 µM
IC50 [7]: > 10 µM
IC50 (OAT3): > 10 µM
IC50 [8]: 11.2 µM
IC50 [9]: 3.74 µM
Ki [9]: 1.74 µM
IC50 (OCT2): 1.97 µM
Ki (OCT2): 0.69 µM
AUC ([5]; human, plasma, oral, 200 mg): 106000 ng·h/mL
Cmax ([5]; human, plasma, oral, 200 mg): 7100 ng/mL
Tmax ([5]; human, plasma, oral, 200 mg): 3 h
AUC [10]: 77300 ng·h/mL
Cmax [10]: 5300 ng/mL
Tmax [10]: 3 h
